Molecular target: T1, Angiotensin II Receptor (Bos taurus, UniProt P25104)
T1 construct: The brownish tissue forming the adrenal cortex is scraped off and finely minced with scissors before homogenization; from tissue; host or cells: beef adrenal cortex, microsomal membranes (100,000 x g pellet)
T1 sequence (P25104 1-359): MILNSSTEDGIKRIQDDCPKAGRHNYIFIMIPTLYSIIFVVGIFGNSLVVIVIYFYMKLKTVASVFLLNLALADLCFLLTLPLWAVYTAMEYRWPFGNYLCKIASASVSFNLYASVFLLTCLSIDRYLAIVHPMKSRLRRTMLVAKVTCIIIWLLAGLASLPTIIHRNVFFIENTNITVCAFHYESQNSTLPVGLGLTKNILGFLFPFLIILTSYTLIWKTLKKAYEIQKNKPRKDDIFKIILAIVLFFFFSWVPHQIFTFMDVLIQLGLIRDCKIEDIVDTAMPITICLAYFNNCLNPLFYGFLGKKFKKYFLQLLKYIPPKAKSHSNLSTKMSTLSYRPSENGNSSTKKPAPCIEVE
Assay: Receptor binding assay: binding of [^125 I](Sar^1,Ile^8)AngII
Details: beef adrenal cortex membranes, 60 min, room temperature
Description: Beef adrenals are obtained from a local slaughter house (Maxwell-Cohen). [^125 I](Sar^1,Ile^8)AngII, S. A. 2200 Ci/mmole, is purchased from Dupont (NEN®, Boston, Mass.). All unlabeled AngII analogs, Dimethylsulfoxide (DMSO), nucleotides, bovine serum albumin (BSA) are purchased from Sigma Chemical Co., St. Louis, Mo. U.S.A.
Approximately sixteen (16) to twenty (20) beef adrenal glands are processed as follows: fresh adrenal glands received on crushed ice are cleaned of fatty tissues and the tough membranes encapsulating the glands are removed and discarded. […] A 100 ul aliquot is withdrawn and the protein content of the preparation is determined by the Lowry's method (Lowry, O. H., Rosebrough, N. P., Farr, A. L. and Randall, R. J., Protein measurement with Polin phenol reagent. J. Biol. Chem., […], 265-275, 1951). […]
The binding of [^125 I](Sar^1 Ile^8)AngII to microsomal membranes is initiated by the addition of reconstituted membranes (1:10 vols.) in freshly made 50.0 mM Tris.HCl buffer, pH 7.4 containing 0.25% heat inactivated bovine serum albumin (BSA): 80 ul membrane protein (10 to 20 ug/assay) to wells already containing 100 ul of incubation buffer (as described above) and 20 ul [^125 I](Sar^1 Ile^8)AngII (Specific Activity, 2200 Ci/mmole). Non-specific binding is measured in the presence of 1.0 uM unlabeled (Sar^1,Ile^8)AngII, added in 20 ul volume. […]

Q: Which IC50 does the source give for CCCCc1nc2ccc(C(C)(O)CC3CCCN3)cc2c(=O)n1Cc1ccc(-c2ccccc2-c2nnn[nH]2)cc1 (stereo not drawn) [Example 79, CIS-2-Butyl-6-[1-hydroxy-1-methyl-2-(2-pyrrolidinyl)ethyl]-3-[[21-(1H-tetrazol-5-yl)[1,1'-biphenyl]-4-yl]methyl]-4(3H)-quinazolinone] here?
A: 3.5 nM
